Reference: ChEMBL document CHEMBL4219040, “Modulation of Glycine-Mediated Spinal Neurotransmission for the Treatment of Chronic Pain” (J Med Chem, 2018)

Tests used:
Rattus norvegicus [1] = species on record: Rattus norvegicus; assay: Antiallodynic activity in Sprague-Dawley rat model of spared nerve injury-induced allodynia assessed as inhibition of electrically evoked inhibitory post-synaptic current amplitude in spinal cord by electrophysiology method; assay type: functional
Mus musculus [2] = assay: Antiallodynic activity in ddY mouse partial sciatic nerve ligation-injury model assessed as inhibition of mechanical allodynia by measuring paw withdrawal threshold in response to probing with von Frey hairs administered via iv route; assay type: functional
[3] = target: T1, P2X purinoceptor 7 (Mus musculus) (UniProt Q9Z1M0); assay: Agonist activity at P2X7 receptor in C57Bl6 mouse lumbar spinal cord slices assessed as increase in glycinergic inhibitory postsynaptic currents after 20 to 26 mins by electrophysiology method relative to control; set-up: scale not given: the % may be the effect or the level left
T1 sequence (whole entry): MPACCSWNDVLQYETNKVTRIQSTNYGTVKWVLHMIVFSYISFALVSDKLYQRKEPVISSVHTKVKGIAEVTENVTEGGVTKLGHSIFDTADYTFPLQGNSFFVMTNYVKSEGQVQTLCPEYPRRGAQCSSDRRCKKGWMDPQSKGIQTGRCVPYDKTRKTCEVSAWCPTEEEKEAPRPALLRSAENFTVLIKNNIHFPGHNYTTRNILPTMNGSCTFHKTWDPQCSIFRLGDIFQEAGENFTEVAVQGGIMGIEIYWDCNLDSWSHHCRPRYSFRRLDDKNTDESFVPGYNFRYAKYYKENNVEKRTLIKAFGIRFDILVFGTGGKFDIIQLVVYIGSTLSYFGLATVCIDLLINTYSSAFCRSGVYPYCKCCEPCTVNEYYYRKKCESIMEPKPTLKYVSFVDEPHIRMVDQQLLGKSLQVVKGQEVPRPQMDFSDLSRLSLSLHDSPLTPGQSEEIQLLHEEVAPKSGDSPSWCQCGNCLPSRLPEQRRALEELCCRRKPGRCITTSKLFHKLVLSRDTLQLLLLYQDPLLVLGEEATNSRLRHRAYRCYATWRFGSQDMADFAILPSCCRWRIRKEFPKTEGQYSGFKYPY

[4] = target: T2, Sodium- and chloride-dependent glycine transporter 2 (Homo sapiens, UniProt Q9Y345); assay: Inhibition of GlyT-2 (unknown origin)
T2 sequence (Q9Y345 whole entry): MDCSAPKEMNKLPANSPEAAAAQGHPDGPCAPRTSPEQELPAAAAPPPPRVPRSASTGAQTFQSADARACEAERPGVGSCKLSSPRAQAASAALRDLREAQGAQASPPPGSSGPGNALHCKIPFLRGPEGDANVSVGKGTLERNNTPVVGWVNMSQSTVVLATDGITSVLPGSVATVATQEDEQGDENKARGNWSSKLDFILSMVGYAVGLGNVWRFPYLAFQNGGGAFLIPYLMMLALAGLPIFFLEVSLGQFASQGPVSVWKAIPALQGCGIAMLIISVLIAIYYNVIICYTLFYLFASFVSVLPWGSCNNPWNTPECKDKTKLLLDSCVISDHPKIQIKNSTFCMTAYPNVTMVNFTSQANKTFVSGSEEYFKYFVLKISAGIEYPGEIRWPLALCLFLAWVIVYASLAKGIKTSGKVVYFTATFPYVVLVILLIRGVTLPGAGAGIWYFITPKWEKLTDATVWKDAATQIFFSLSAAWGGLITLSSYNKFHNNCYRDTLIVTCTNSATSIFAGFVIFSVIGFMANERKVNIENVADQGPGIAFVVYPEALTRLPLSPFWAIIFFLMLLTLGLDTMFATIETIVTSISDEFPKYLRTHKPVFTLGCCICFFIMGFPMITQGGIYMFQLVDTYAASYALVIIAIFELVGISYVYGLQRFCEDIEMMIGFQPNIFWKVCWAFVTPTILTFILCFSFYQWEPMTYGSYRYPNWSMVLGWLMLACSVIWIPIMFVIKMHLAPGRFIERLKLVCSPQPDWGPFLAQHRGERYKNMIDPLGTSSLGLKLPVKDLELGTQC

[5] = target: T3, Sodium- and chloride-dependent glycine transporter 1 (Homo sapiens, UniProt P48067); assay: Inhibition of human GlyT-1 expressed in HEK293 cells assessed as reduction in [3H]-glycine uptake preincubated for 30 mins followed by 3H]-glycine addition measured after 30 mins by liquid scintillation counting method; assay type: cell-based
T3 sequence (P48067 whole entry): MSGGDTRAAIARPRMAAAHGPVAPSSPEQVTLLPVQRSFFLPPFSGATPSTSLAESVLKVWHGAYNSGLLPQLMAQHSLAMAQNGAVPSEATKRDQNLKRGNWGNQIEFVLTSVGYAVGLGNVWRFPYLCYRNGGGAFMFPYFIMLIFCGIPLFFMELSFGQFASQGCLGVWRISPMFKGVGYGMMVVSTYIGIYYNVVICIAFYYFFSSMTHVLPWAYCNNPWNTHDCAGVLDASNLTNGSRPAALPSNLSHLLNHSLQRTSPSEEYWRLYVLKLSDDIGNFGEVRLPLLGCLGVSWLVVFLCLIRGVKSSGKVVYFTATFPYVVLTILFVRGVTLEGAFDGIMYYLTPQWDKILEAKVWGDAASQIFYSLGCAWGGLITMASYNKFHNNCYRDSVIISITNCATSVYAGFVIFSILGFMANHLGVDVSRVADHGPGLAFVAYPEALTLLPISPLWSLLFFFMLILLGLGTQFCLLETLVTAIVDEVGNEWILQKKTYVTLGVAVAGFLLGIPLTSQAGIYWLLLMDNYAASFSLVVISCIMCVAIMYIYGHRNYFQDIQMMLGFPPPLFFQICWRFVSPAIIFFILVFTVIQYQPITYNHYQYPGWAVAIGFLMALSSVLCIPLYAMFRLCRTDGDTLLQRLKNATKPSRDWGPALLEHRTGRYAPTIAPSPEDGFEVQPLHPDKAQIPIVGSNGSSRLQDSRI

Homo sapiens = species on record: Homo sapiens; assay: Selectivity ratio of IC50 for human GlyT-1 expressed in HEK293 cells to IC50 for human GlyT-2 expressed in HEK293 cells; assay type: cell-based
Rattus norvegicus [6] = species on record: Rattus norvegicus; assay: Antiallodynic activity in spinal cord injury Sprague-Dawley rat model assessed as inhibition of non-voiding contraction amplitude at 10 ug, it relative to control; assay type: functional
Rattus norvegicus [7] = species on record: Rattus norvegicus; assay: Antiallodynic activity in spinal cord injury Sprague-Dawley rat model assessed as inhibition of non-voiding contraction frequency at 30 ug, it relative to control; assay type: functional
[8] = target: T2, Sodium- and chloride-dependent glycine transporter 2; assay: Inhibition of human GlyT-2 expressed in HEK293 cells assessed as reduction in [3H]-glycine uptake preincubated for 30 mins followed by 3H]-glycine addition measured after 30 mins by liquid scintillation counting method; assay type: cell-based
Rattus norvegicus [9] = species on record: Rattus norvegicus; assay: Antiallodynic activity in spinal cord injury Sprague-Dawley rat model assessed as inhibition of non-voiding contraction amplitude at 30 ug, it relative to control; assay type: functional
[10] = Unbound brain to plasma concentration ratio in mouse; assay type: ADME, cell-free; conditions: read-out: K(p,uu,brain)
Rattus norvegicus [11] = species on record: Rattus norvegicus; assay: Antiallodynic activity in spinal cord injury Sprague-Dawley rat model assessed as inhibition of non-voiding contraction frequency at 10 ug, it relative to control; assay type: functional
[12] = target: T4, Glycine receptor alpha-3/beta (Homo sapiens, UniProt O75311+P48167); assay: Positive allosteric modulation of human GlyRalpha3beta expressed in CHO cells assessed as potentiation of EC20 glycine-induced ion flux at 10 uM by HT assay; assay type: cell-based
[13] = target: T4, Glycine receptor alpha-3/beta; assay: Positive allosteric modulation of human GlyRalpha3beta expressed in CHO cells assessed as potentiation of EC5 to EC10 glycine-induced response at 10 uM by manual patch clamp assay; assay type: cell-based
[14] = target: T4, Glycine receptor alpha-3/beta; assay: Positive allosteric modulation of human GlyRalpha3beta expressed in CHO cells assessed as potentiation of EC20 glycine-induced response at 5.9 uM by fluorescence based HTS assay; assay type: cell-based
[15] = target: T3, Sodium- and chloride-dependent glycine transporter 1; assay: Inhibition of human GlyT-1
Rattus norvegicus [16] = assay: Antiallodynic activity in po dosed rat spinal nerve ligation model assessed as reduction in mechanical allodynia; assay type: functional
[17] = target: 5-hydroxytryptamine receptor 2A (Homo sapiens, UniProt P28223); assay: Antagonist activity at human 5-HT2A; assay type: functional
Rattus norvegicus [18] = assay: Analgesic activity in sc dosed formalin-induced pain rat model by formalin test; assay type: functional
Mus musculus [19] = assay: In vivo receptor occupancy at GlyT-2 in formalin-induced pain mouse model at 20 mg/kg, ip; assay type: functional
Mus musculus [20] = assay: In vivo receptor occupancy at GlyT-2 in formalin-induced pain mouse model at 0.06 mg/kg, ip; assay type: functional
Mus musculus [21] = assay: Analgesic activity in formalin-induced pain mouse model assessed as reduction in phase 2 paw licking behavior at 25 mg/kg, ip; assay type: functional; set-up: scale not given: the % may be the effect or the level left
[22] = Toxicity in ip dosed formalin-induced pain mouse model; assay type: organism-based; conditions: in vivo
Mus musculus [23] = assay: In vivo receptor occupancy at GlyT-2 in formalin-induced pain mouse model at 25 mg/kg, ip; assay type: functional
Rattus norvegicus [24] = species on record: Rattus norvegicus; assay: Inhibition of GlyT in rat spinal cord lamina X neuron assessed as increase in extracellular glycine level at 10 uM relative to basal level; set-up: scale not given: the % may be the effect or the level left
Mus musculus [25] = assay: In vivo receptor occupancy at GlyT-2 in formalin-induced pain mouse model at 100 mg/kg, ip; assay type: functional
Mus musculus [26] = assay: Analgesic activity in formalin-induced pain mouse model assessed as reduction in phase 2 paw licking behavior at 100 mg/kg, ip; assay type: functional; set-up: scale not given: the % may be the effect or the level left
[27] = target: T3, Sodium- and chloride-dependent glycine transporter 1; assay: Inhibition of human GlyT-1 expressed in CHO cells assessed as reduction in [3H]-glycine uptake; assay type: cell-based
[28] = target: T4, Glycine receptor alpha-3/beta; assay: Positive allosteric modulation of human GlyRalpha3beta expressed in CHO cells assessed as potentiation of EC20 glycine-induced ion flux by HT assay; assay type: cell-based
Mus musculus [29] = assay: Analgesic activity in CFA-induced mechanical hyperalgesia C57BL/6J mouse model assessed as reduction in mechanical paw withdrawal threshold administered sc measured after 2 hrs; assay type: functional, organism-based
Mus musculus [30] = assay: In vivo inhibition of GlyT in CFA-induced mechanical hyperalgesia C57BL/6J mouse model assessed as increase in extracellular glycine level in CSF at 200 mg/kg, sc relative to basal level; assay type: functional

T4 sequence (O75311 whole entry): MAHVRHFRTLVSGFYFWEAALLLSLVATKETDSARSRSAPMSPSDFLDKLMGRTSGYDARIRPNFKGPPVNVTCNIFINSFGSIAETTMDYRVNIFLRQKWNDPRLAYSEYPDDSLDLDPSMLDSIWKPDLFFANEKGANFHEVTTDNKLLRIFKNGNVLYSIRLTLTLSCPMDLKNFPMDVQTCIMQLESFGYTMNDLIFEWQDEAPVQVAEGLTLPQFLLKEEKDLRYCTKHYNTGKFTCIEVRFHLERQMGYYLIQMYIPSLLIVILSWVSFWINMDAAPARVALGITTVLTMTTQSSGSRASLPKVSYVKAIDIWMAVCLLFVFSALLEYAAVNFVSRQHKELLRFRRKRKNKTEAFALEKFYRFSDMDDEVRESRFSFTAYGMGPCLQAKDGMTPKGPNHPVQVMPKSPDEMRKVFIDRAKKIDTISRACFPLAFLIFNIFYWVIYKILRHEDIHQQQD
T4 sequence (P48167 whole entry): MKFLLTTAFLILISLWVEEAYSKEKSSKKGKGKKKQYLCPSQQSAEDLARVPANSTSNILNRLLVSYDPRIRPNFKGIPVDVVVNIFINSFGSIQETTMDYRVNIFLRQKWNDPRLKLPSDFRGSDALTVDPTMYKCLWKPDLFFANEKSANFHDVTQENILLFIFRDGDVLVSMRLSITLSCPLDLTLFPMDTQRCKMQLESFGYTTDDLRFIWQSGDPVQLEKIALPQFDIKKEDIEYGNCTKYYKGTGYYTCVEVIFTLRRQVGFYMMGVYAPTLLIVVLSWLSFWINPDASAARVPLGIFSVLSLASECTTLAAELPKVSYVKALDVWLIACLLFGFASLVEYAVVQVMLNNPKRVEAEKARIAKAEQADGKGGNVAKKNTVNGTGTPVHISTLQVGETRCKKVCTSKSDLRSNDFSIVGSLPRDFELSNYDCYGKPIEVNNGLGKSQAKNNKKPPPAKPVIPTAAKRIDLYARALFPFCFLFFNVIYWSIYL
Chain of 5-hydroxytryptamine receptor 2A (P28223 whole entry): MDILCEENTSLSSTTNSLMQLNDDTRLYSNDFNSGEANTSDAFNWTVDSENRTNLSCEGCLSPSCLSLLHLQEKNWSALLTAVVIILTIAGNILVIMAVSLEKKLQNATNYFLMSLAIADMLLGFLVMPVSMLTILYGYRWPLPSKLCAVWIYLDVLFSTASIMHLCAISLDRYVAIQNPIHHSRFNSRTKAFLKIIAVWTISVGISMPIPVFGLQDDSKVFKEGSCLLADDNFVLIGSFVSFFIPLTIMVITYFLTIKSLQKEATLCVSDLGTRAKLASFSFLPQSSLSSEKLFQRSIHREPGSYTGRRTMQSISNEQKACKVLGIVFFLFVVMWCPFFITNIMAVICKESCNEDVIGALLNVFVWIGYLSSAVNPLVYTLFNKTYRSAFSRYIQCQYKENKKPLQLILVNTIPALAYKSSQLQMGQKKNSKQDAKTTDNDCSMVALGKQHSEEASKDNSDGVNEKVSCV

NS(=O)(=O)c1cc2c(cc1Cl)NC(C1CC3C=CC1C3)NS2(=O)=O (stereo not drawn) [CYCLOTHIAZIDE]
inhibition (INH) (Rattus norvegicus [1]): 37.9%

NCC1(CC(=O)O)CCCCC1 [GABAPENTIN]
ED50 (Mus musculus [2]): 8200 ng

Nc1ncnc2c1ncn2[C@@H]1O[C@H](COP(=O)(O)OP(=O)(O)OP(=O)(O)O)[C@@H](OC(=O)c2ccc(C(=O)c3ccccc3)cc2)[C@H]1O
Activity [3]: 135%

CCCCC/C=C\C/C=C\C/C=C\C/C=C\CCCC(=O)NCC(=O)O [ARACHIDONOYL GLYCINE]
IC50 [4]: 3 µM

N[C@@H](COC(c1cccc(F)c1)c1ccccc1OCc1ccccc1)C(=O)O (stereo partly drawn)
IC50 [5]: 4 µM
Ratio IC50 (Homo sapiens): 40
inhibition (INH) (Rattus norvegicus [6]): 26%
inhibition (INH) (Rattus norvegicus [7]): 76%
IC50 [8]: 0.1 µM
inhibition (INH) (Rattus norvegicus [9]): 37%
Kp uu [10]: 0.036
inhibition (INH) (Rattus norvegicus [11]): 65%

CN1C(=O)[C@@H]2CN(S(=O)(=O)c3ccc4c(c3)OCO4)C[C@@H]2c2cnccc21
Activity [12]: 95%
Activity [13]: 1350%
Activity [14]: 94%

CNCC(=O)O [SARCOSINE]
IC50 [15]: 91 µM

CN1c2ncccc2N(Cc2ccccc2C(F)(F)F)C(=O)[C@H]1Cc1ccc(C(N)=O)cc1
Activity [12]: 64%
Activity [13]: 303%
Activity [14]: 28%

COc1ccc2c(c1)CC[C@H](CN(C)CC(=O)O)[C@@H]2c1ccccc1 [ORG-25935]
IC50 [15]: 0.1 µM

CCCCOc1c(OC)cc(C(=O)NCC2(N(C)C)CCOCC2)cc1OC
ED50 (Rattus norvegicus [16]): 80 mg/kg
IC50 [17]: 1.3 µM
ED50 (Rattus norvegicus [18]): 20 mg/kg

COc1cc(C(=O)NCC2(N(C)C)CCCC2)cc(OC)c1OCc1ccccc1
Occ (Mus musculus [19]): 82%
Occ (Mus musculus [20]): 6%
Activity (Mus musculus [21]): 33%
MTD [22]: 2 mg/kg
Occ (Mus musculus [23]): 36%
ED50 (Mus musculus [2]): 11 ng
Activity (Rattus norvegicus [24]): 337%
Occ (Mus musculus [25]): 60%
Kp uu [10]: 0.5
Activity (Mus musculus [26]): 80%
IC50 [27]: > 100 µM

O=[N+]([O-])c1cccc(S(=O)(=O)NCCOc2cccc3cccnc23)c1
Activity [12]: 98%
Activity [13]: 136%
Activity [14]: 23%

O=S(=O)(NCCOc1cccc2cccnc12)c1ccccc1
EC50 [28]: 3.98 µM
Activity [12]: 182%
Activity [13]: 2710%
Activity [14]: 65%

O=C(O)c1ccc(C[C@@H]2Sc3ccccc3N(Cc3ccccc3C(F)(F)F)C2=O)cc1F
Activity [12]: 44%
Activity [13]: 259%
Activity [14]: 161%

CC(C)(C)c1cc(C(C)(C)C)c(O)c(C(=O)O)c1O
EC50 [28]: 0.0135 µM
Activity [12]: 182%
Activity [13]: 2060%
Activity [14]: 67%

CCNCC(=O)O
EC50 (Mus musculus [29]): 98 mg/kg
inhibition in vivo at 200 mg/kg (Mus musculus [30]): 25%

O=C(O)c1ccc(C[C@H]2Sc3c(F)cccc3N(Cc3ccccc3C(F)(F)F)C2=O)cc1
EC50 [28]: 0.661 µM
Activity [12]: 59%
Activity [13]: 396%
Activity [14]: 52%

C#Cc1cc(C(=O)OC)cc(-c2ncco2)c1
EC50 [28]: 10.2 µM
Activity [12]: 49%
Activity [13]: 255%
Activity [14]: 52%
